Assay results taken from ChEMBL document CHEMBL3272126 (J Med Chem, 1977).

What was measured:
[1] = test system: Mus musculus; test: Toxicity in sc dosed albino mouse assessed as mydriasis; type: organism-based; settings: in vivo
[2] = test system: Mus musculus; test: Anti-tremorine activity against sc dosed albino mouse assessed as normalized dose for reversal of tremorine-induced spontaneous activity depression; type: functional

Structure (SMILES)	ED50 [1]	ND [2]
CN1[C@@H]2CC[C@H]1CC(OC(=O)[C@H](CO)c1ccccc1)C2 (stereo partly drawn) [ENDO-ATROPINE]	0.061 mg/kg	2.2 mg/kg
CN1[C@@H]2C[C@@H](OC(=O)[C@H](CO)c3ccccc3)C[C@H]1[C@@H]1O[C@@H]12 [SCOPOLAMINE]	0.012 mg/kg	1.3 mg/kg
